# Results as given in patent publication US20250381198A1 (Melt Pharmaceuticals, Inc., priority 2024, published 2025).
# Legend:
# Format in all cases: in vivo, human
# [1] = test system: subjects undergoing cataract extraction with lens replacement (CELR); experiment: Phase 3: rescue sedation medication use preoperatively and intraoperatively
# Excerpt: A secondary analysis of rescue sedation medication use (both preoperatively and intraoperatively) for the ITT analysis set is shown in TABLE 51.
# [2] = test system: subjects undergoing cataract extraction with lens replacement (CELR); experiment: Phase 3: intraoperative supplemental analgesia; settings: intention-to-treat analysis set
# [3] = test system: subjects undergoing cataract extraction with lens replacement (CELR); experiment: Phase 3 MELT-300: procedural sedation responders (primary endpoint); settings: for Procedural sedation responder - n: number of subjects
# Method: Eligible participants were admitted to the study unit on Day 1.
# Participants received study medication 30 (+5) minutes, without food or water, before planned surgery start (defined as instillation of topical ocular anesthetic gel (3 drops of chloroprocaine hydrochloride ophthalmic gel)).
# The effectiveness of MELT-300 was evaluated after study medication is administered before surgery, in the course of surgery (intraoperatively), and postoperative on Day 1 (end of surgery defined as just prior to drape removal). Efficacy assessments included assessments of sedation, need for rescue medication for sedation, need for rescue medication for pain, and the ability to complete the surgery.
# Achievement of the primary endpoint (i.e., procedural sedation) was evaluated. Success for a procedural sedation responder was defined as a subject that achieved the target sedation level (RSS level 2 or 3) by the start of surgery without the need for rescue sedation medication, no requirement for intraoperative sedation medication, and who was able to complete the surgery.
# Treatment differences were tested using a Pearson's chi-square test where a p-value<0.05 indicated a difference, with a Fisher's exact test being used instead if any expected values were <5. […] A supportive stratified analysis was performed using the Cochran-Mantel-Haenszel (CMH) row-mean score test to stratify by site grouping.
# This sensitivity analysis utilized the last observation (collected after study drug administration) carried forward method for imputing missing preoperative RSS scores just prior to the start of surgery.
# [4] = test system: subjects undergoing cataract extraction with lens replacement (CELR); experiment: Phase 3: preoperative procedural sedation responders (second key secondary); settings: for Preoperative procedural sedation responder - n: number of subjects
# [5] = test system: subjects undergoing cataract extraction with lens replacement (CELR); experiment: Phase 3: requirement for rescue sedation medication (first key secondary); settings: for Requirement for rescue sedation medication - n: number of subjects
# Method: Analysis of the first key secondary analysis of requirement for rescue sedation medication was performed. Requirement for rescue sedation medication was defined as a subject that received rescue sedation medication during the preoperative or intraoperative period. Group comparisons and statistics were analogous to those for TABLES 42-44.
# [6] = test system: subjects undergoing cataract extraction with lens replacement (CELR); experiment: Phase 3: surgery completion
# Excerpt: A plot of the Kaplan-Meier Curve for time to achieve preoperative target sedation level for the all-treated analysis set is provided in FIG. 5.
# [7] = test system: subjects undergoing cataract extraction with lens replacement (CELR); experiment: Phase 3: patient satisfaction (5-point Likert scale); design: key to Patient Satisfaction Scores, Min / Patient Satisfaction Scores, Max: 5=very satisfied; 4=satisfied; 3=neither satisfied nor dissatisfied; 2=dissatisfied; 1=very dissatisfied; settings: ITT analysis set
# Method: Patient satisfaction with the operative experience was measured at the Follow-Up visit using a 5-point Likert scale (5=very satisfied; 4=satisfied; 3=neither satisfied nor dissatisfied; 2=dissatisfied; 1=very dissatisfied). […] The means were compared using 2-sample t-tests and the Satterthwaite method. The proportion of satisfied responses (‘Very Satisfied’ or ‘Satisfied’, pooled) were tested using a Pearson's chi-square test; and a Fisher's exact test was used instead if any expected values were <5.
# [8] = test system: subjects undergoing cataract extraction with lens replacement (CELR); experiment: Phase 3: surgeon satisfaction (5-point Likert scale); design: key to Surgeon Satisfaction Scores, Min / Surgeon Satisfaction Scores, Max: 5=very satisfied; 4=satisfied; 3=neither satisfied nor dissatisfied; 2=dissatisfied; 1=very dissatisfied; settings: ITT analysis set
# Method: Surgeon satisfaction with the operative experience was measured postoperatively on Day 1 using a 5-point Likert scale (5=very satisfied; 4=satisfied; 3=neither satisfied nor dissatisfied; 2=dissatisfied; 1=very dissatisfied). […] The means were compared using 2-sample t-tests and the Satterthwaite method. The proportion of satisfied responses (‘Very Satisfied’ or ‘Satisfied’, pooled) were tested using a Pearson's chi-square test; and a Fisher's exact test was used instead if any expected values were <5.
# [9] = ITT Analysis Set, number of subjects
smiles,measurement,setting,value
"Cc1ncc2n1-c1ccc(Cl)cc1C(c1ccccc1F)=NC2 [Midazolam, 8-chloro-6-(2-fluorophenyl)-1-methyl-4H-imidazo[1,5-a][1,4]benzodiazepine]",Received intraoperative rescue sedation medication - %,[1]; ITT Analysis Set,16.9%
same,Received preoperative rescue sedation medication - %,[1]; ITT Analysis Set,18.0%
same,Received intraoperative rescue sedation medication - n,[1]; [9],15
same,Received preoperative rescue sedation medication - n,[1]; [9],16
same,Subjects who received intraoperative rescue sedation medication,[1]; ITT analysis set,16.9%
same,Subjects who received preoperative rescue sedation medication,[1]; ITT analysis set,18.0%
same,Subjects who received intraoperative supplemental analgesia,[2],1.1%
same,Procedural sedation responder - %,[3]; All-Treated Analysis Set,65.2%
same,Procedural sedation responder - n,[3]; All-Treated Analysis Set,58
same,Procedural sedation responder - %,[3]; ITT Analysis Set,65.2%
same,Procedural sedation responder - n,[3]; ITT Analysis Set,58
same,Procedural sedation responders (achieved target sedation),"[3]; ITT analysis set, MELT-300 or 3 mg midazolam sublingual tablet before CELR",65.2%
same,Procedural sedation responder - %,[3]; PP Analysis Set,65.2%
same,Procedural sedation responder - n,[3]; PP Analysis Set,58
same,Preoperative procedural sedation responder - %,[4]; All-Treated Analysis Set,73.0%
same,Preoperative procedural sedation responder - n,[4]; All-Treated Analysis Set,65
same,Preoperative procedural sedation responder - %,[4]; ITT Analysis Set,73.0%
same,Preoperative procedural sedation responder - n,[4]; ITT Analysis Set,65
same,Preoperative procedural sedation responders,[4]; ITT analysis set,73.0%
same,Preoperative procedural sedation responder - %,[4]; PP Analysis Set,73.0%
same,Preoperative procedural sedation responder - n,[4]; PP Analysis Set,65
same,Preoperative procedural sedation responders,[4]; PP analysis set,73.0%
same,Preoperative procedural sedation responders,[4]; all-treated analysis set,73.0%
same,Requirement for rescue sedation medication - %,[5]; All-Treated Analysis Set,33.7%
same,Requirement for rescue sedation medication - n,[5]; All-Treated Analysis Set,30
same,Requirement for rescue sedation medication - %,[5]; ITT Analysis Set,33.7%
same,Requirement for rescue sedation medication - n,[5]; ITT Analysis Set,30
same,Subjects who required rescue sedation medication,"[5]; ITT analysis set, preoperative or intraoperative period",33.7%
same,Requirement for rescue sedation medication - %,[5]; PP Analysis Set,33.7%
same,Requirement for rescue sedation medication - n,[5]; PP Analysis Set,30
same,Subjects who required rescue sedation medication,[5]; PP analysis set,33.7%
same,Subjects who required rescue sedation medication,[5]; all-treated analysis set,33.7%
same,Completed surgery without intervention due to pain or anxiety,[6]; ITT Analysis Set,89 (100.0) n (%)
same,Completed the surgery,[6]; ITT Analysis Set,89 (100.0) n (%)
same,Subjects who completed the surgery,[6]; ITT analysis set,100.0%
same,"Subjects Completed Surgery, %","[6]; Summary of Disposition, value in parentheses, percent of ITT set",(100)
same,"Patient Satisfaction Scores, Max",[7]; 5-point Likert scale,5
same,"Patient Satisfaction Scores, Mean ± SD",[7]; 5-point Likert scale,4.8 ± 0.55
same,"Patient Satisfaction Scores, Median",[7]; 5-point Likert scale,5.0
same,"Patient Satisfaction Scores, Min",[7]; 5-point Likert scale,2
same,Patient Satisfaction Score 1 = Very Dissatisfied,[7],0 n
same,"Surgeon Satisfaction Scores, Max",[8]; 5-point Likert scale,5
same,"Surgeon Satisfaction Scores, Mean ± SD",[8]; 5-point Likert scale,4.8 ± 0.56
same,"Surgeon Satisfaction Scores, Median",[8]; 5-point Likert scale,5.0
same,"Surgeon Satisfaction Scores, Min",[8]; 5-point Likert scale,2
same,Surgeon Satisfaction Score 1 = Very Dissatisfied,[8],0 n
